Assay results: US10858352B2, “Pharmaceutical compounds” (Heptares Therapeutics Limited, priority 2018, dated 2020)
pEC50: −log10 of the molar value.

What was measured:
Format in all cases: cell-based
[1] = target: T1, human muscarinic M2 receptor (Homo sapiens, UniProt P08172); experiment: Alphascreen Surefire phospho-ERK1/2 functional assay, M2; settings: for Emax: CHO, read-out: % Emax cf. ACh (M2)
T1 sequence (P08172 1-466): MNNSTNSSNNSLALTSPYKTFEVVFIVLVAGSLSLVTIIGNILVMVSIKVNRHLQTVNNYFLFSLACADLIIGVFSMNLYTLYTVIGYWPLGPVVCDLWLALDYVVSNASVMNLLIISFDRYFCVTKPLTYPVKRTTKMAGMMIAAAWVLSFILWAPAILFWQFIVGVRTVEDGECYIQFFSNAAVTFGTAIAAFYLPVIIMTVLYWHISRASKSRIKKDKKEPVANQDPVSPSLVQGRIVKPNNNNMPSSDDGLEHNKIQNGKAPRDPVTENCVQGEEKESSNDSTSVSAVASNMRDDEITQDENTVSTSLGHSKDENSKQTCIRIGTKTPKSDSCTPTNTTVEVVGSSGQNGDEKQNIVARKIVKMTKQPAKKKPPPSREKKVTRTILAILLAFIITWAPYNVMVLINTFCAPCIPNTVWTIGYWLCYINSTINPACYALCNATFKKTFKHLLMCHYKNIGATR
Method: (§1) ERK1/2 phosphorylation is a downstream consequence of both Gq/11 and Gi/o protein coupled receptor activation, making it highly suitable for the assessment of M1, M3 (Gq/11 coupled) and M2, M4 receptors (Gi/o coupled), rather than using different assay formats for different receptor subtypes. CHO cells stably expressing the human muscarinic M1, M2, M3 or M4 receptor were plated (25K/well) onto 96-well tissue culture plates in MEM-alpha+10% dialysed FBS. Once adhered, cells were serum-starved overnight. Agonist stimulation was performed by the addition of 5 μL agonist to the cells for 5 min (37° C.). Media was removed and 50 μL of lysis buffer added. After 15 min, a 4 μL sample was transferred to 384-well plate and 7 μL of detection mixture added. […]

[2] = target: T2, human muscarinic M3 receptor (Homo sapiens, UniProt P20309); experiment: Alphascreen Surefire phospho-ERK1/2 functional assay, M3; settings: for Emax: CHO, read-out: % Emax cf. ACh (M3)
T2 construct: expressed in transfected cells
T2 sequence (P20309 whole entry): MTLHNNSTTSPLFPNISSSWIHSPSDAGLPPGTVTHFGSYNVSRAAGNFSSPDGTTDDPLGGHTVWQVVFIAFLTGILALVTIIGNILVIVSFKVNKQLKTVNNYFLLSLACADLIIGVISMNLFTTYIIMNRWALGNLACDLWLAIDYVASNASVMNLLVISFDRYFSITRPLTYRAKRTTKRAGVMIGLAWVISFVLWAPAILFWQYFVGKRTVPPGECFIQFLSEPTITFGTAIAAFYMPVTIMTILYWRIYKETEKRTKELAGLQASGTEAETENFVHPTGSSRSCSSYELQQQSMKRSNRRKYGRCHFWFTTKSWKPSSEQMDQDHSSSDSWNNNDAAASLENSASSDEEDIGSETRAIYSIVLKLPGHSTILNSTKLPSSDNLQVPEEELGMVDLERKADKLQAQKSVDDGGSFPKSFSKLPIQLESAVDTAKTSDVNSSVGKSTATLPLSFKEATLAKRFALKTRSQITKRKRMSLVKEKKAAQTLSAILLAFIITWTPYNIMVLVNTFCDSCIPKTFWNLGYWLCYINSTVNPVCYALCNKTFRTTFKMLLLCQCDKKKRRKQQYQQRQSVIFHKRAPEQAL
Method: as §1

[3] = target: T3, human muscarinic M1 receptor (Homo sapiens, UniProt P11229); experiment: Alphascreen Surefire phospho-ERK1/2 functional assay, M1; settings: for pEC50: pEC50 M1, CHO cells stably expressing human M1, agonist 5 min, 37° C.
T3 sequence (P11229 1-460): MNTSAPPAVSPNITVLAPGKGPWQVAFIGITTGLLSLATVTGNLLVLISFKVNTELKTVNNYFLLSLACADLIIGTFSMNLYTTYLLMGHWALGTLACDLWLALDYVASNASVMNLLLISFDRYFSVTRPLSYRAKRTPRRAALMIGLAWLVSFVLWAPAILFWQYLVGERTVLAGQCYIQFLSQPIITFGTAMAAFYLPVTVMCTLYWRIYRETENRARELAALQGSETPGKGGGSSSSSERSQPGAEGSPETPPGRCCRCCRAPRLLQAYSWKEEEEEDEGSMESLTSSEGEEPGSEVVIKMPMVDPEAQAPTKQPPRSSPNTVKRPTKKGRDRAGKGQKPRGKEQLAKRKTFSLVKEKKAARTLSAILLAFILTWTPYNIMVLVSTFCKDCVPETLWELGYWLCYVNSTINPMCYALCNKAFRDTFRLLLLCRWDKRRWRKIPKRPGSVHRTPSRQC
Outline: (§2)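 CHO cells stably expressing human M1, M2, M3 or M4 receptor, serum-starved overnight, then stimulated with agonist for 5 min at 37 °C. Cells lysed for 15 min and phospho-ERK1/2 detected in the lysate by AlphaScreen SureFire.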

[4] = target: T4, human muscarinic M4 receptor (Homo sapiens, UniProt P08173); experiment: Alphascreen Surefire phospho-ERK1/2 functional assay, M4; settings: for EC50: agonist 5 min, 37° C., read-out: pEC50 M4 (converted)
T4 construct: expressed in transfected cells
T4 sequence (P08173 1-479): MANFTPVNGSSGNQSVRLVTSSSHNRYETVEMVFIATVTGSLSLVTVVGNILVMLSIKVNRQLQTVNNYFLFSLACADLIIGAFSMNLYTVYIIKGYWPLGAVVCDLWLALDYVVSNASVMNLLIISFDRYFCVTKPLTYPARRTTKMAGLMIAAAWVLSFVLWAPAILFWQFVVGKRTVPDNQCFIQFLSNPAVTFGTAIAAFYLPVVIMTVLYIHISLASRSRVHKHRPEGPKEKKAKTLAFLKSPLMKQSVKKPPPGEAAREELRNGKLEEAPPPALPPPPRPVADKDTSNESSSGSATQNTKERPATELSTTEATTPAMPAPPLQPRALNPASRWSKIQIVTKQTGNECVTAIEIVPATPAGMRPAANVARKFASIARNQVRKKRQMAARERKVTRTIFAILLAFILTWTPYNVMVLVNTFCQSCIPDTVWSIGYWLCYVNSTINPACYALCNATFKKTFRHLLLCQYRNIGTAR
Outline: as §2

[5] = CHO cells stably expressing human M4

SMILES | pEC50 [1] | Emax [1] [%] | pEC50 [2] | Emax [2] [%] | % Emax cf. ACh (M1) ([3]; CHO cells stably expressing human M1, Emax relative to ACh) | pEC50 [3] | % Emax cf. ACh (M4) ([4]; CHO cells stably expressing human M4, Emax relative to ACh) | EC50 [4, 5] [µM] | Emax ([3]; CHO, read-out: % Emax cf. ACh (M1), CHO cells stably expressing human M1, Emax relative to ACh) [%] | Emax ([4]; CHO, read-out: % Emax cf. ACh (M4), CHO cells stably expressing human M4, Emax relative to ACh) [%]
CC1(NC(=O)C2CCN(C3CC4CCC(C3)N4c3nc(C(F)(F)F)no3)CC2)CCC1 (single isomer, unassigned) [12-14 Isomer 2] | < 4.70 | 25 | < 4.70 | 9 | (115) % | 7.73 | (40) % | 0.331 |  | 
O=C1CC2(CCN(C3CC4CCC(C3)N4c3nc(C(F)(F)F)no3)CC2)CN1 (single isomer, unassigned) [12-3 Isomer 1] | < 4.70 | 19 | < 4.70 | 31 |  | 7.50 |  | > 20 | 67 | 14
